Legend:
[1] = target: T1, 15-PGDH/HPGD (Homo sapiens, UniProt P15428); test: hPGDH inhibitor screening biochemical assay; conditions: 10 nM enzyme, 15 μM Prostaglandin E2, 0.25 mM NAD, fluorescence ex/em 340/485 nm
T1 construct: purchased R&D System 5660-DH
T1 sequence (P15428 1-266): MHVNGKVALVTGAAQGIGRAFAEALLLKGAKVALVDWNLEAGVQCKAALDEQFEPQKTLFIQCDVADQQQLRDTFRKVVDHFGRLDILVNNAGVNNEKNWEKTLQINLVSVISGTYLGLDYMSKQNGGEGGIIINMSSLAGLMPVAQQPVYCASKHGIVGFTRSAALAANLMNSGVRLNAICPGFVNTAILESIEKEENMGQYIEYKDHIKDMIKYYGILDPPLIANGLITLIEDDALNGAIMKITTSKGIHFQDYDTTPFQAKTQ
Description: A hydroxyprostaglandin dehydrogenase inhibition screening biochemical assay can be performed to assess the synthesized inhibitors provided herein. Provided herein is an exemplary biochemical assay for hPGDH inhibitor screening.
The in vitro biochemical assay can be performed in white, 384 plates in total 20 μl reaction volume consisting of 10 nM of 15-PGDH/HPGD (R&D System #5660-DH), 15 μM Prostaglandin E2 (Sigma, Cat #P5640-10 MG) and 0.25 mM B-Nicotinamide adenine dinucleotide sodium salt (Sigma, Cat #N0632-5G) made in reaction buffer (50 mM Tris-HCl, pH 7.5, 0.01% Tween 20) at 10-point dose response curve for test/tool compounds. Briefly, 5 μl (4×) of compounds solution and 5 μl (final concentration, 10 nM) of enzyme solution is added to white 384 well plates and incubated for 10 mins at 37° C. 5 μl (4×) of Prostaglandin E2 and 5 μl (4×) of β-Nicotinamide adenine dinucleotide sodium salt is added to the wells and incubated for 10 mins at room temperature. Fluorescence is recorded at ex/em=340 nm/485 nm.

[2] = test system: A549; test: A549 EC50 (cell assay, method not described); type: cell-based

Compound	IC50 [1]	EC50 ([2]; Homo sapiens, A549, A549)	EC50 ([2]; A549)
CCCC[C@H](O)c1cnc2c(ccn2-c2cccc(-c3nnc[nH]3)c2)n1 [Compound 2A]	< 0.1 µM	< 0.1 µM	–
CCCC[C@@H](O)c1cnc2c(ccn2-c2cccc(-c3nnc[nH]3)c2)n1 [Compound 2B]	< 0.1 µM	0.1 to 1 µM	–
CC(C)C[C@H](O)[C@H](O)c1cnc2c(ccn2-c2cccc(-c3nnc[nH]3)c2)c1 [Compound 3C, (1R,2S)-4-methyl-1-[1-[3-(4H-1,2,4-triazol-3-yl)phenyl]pyrrolo[2,3-b]pyridin-5-yl]pentane-1,2-diol]	< 0.1 µM	0.1 to 1 µM	–
CC(C)C[C@@H](O)[C@@H](O)c1cnc2c(ccn2-c2cccc(-c3nnc[nH]3)c2)c1 [Compound 3D, (1S,2R)-4-methyl-1-[1-[3-(4H-1,2,4-triazol-3-yl)phenyl]pyrrolo[2,3-b]pyridin-5-yl]pentane-1,2-diol]	< 0.1 µM	–	< 0.1 µM
CCCC(F)(F)[C@@H](O)c1cnc2c(ccn2-c2cccc(-c3nnc[nH]3)c2)c1 [Compound 4A]	< 0.1 µM	0.1 to 1 µM	–
CCCC(F)(F)[C@H](O)c1cnc2c(ccn2-c2cccc(-c3nnc[nH]3)c2)c1 [Compound 4B]	< 0.1 µM	< 0.1 µM	–
CC(F)(F)[C@@H](O)c1cnc2c(ccn2-c2cccc(-c3nnc[nH]3)c2)c1 [Compound 5A]	< 0.1 µM	< 0.1 µM	–
CC(F)(F)[C@H](O)c1cnc2c(ccn2-c2cccc(-c3nnc[nH]3)c2)c1 [Compound 5B]	0.1 to 1 µM	0.1 to 1 µM	–
O[C@H](c1cnc2c(ccn2-c2cccc(-c3nnc[nH]3)c2)c1)C1CCC1 [Compound 10A]	< 0.1 µM	< 0.1 µM	–
O[C@@H](c1cnc2c(ccn2-c2cccc(-c3nnc[nH]3)c2)c1)C1CCC1 [Compound 10B]	< 0.1 µM	< 0.1 µM	–
O[C@@H](c1cnc2c(ccn2-c2cc(Cl)cc(-c3nnc[nH]3)c2)c1)C1CCC(F)(F)CC1 [Compound 12A]	< 0.1 µM	≥ 1 µM	–
O[C@H](c1cnc2c(ccn2-c2cc(Cl)cc(-c3nnc[nH]3)c2)c1)C1CCC(F)(F)CC1 [Compound 12B]	< 0.1 µM	< 0.1 µM	–
CCCCC(C)(O)c1cnc2c(ccn2-c2cc(Cl)cc(-c3nnc[nH]3)c2)c1 (stereo not shown) [Compound 15]	0.1 to 1 µM	≥ 1 µM	–
CCCCC(OC)c1cnc2c(ccn2-c2cc(Cl)cc(-c3nnc[nH]3)c2)c1 (stereo not shown) [Compound 16]	0.1 to 1 µM	0.1 to 1 µM	–
CCCC[C@@H](O)c1cnc2c(ccn2-c2cc(Cl)cc(-c3nnc[nH]3)c2)c1 [Compound 17A]	< 0.1 µM	< 0.1 µM	–
CCCC[C@H](O)c1cnc2c(ccn2-c2cc(Cl)cc(-c3nnc[nH]3)c2)c1 [Compound 17B]	< 0.1 µM	< 0.1 µM	–
CC(C)OC[C@@H](O)c1cnc2c(ccn2-c2cccc(-c3nnc[nH]3)c2)n1 [Compound 20A]	< 0.1 µM	< 0.1 µM	–
CC(C)OC[C@H](O)c1cnc2c(ccn2-c2cccc(-c3nnc[nH]3)c2)n1 [Compound 20B]	< 0.1 µM	0.1 to 1 µM	–

Compound	IC50 [1]	EC50 ([2]; Homo sapiens, A549, A549)	EC50 ([2]; A549)
CCNCC(O)c1cnc2c(cnn2-c2cccc(-c3nnc[nH]3)c2)c1 (stereo not shown) [Compound 21]	≥ 1 µM	≥ 1 µM	–
CC(C)NC[C@H](O)c1cnc2c(ccn2-c2cccc(-c3nnc[nH]3)c2)n1 [Compound 22A]	≥ 1 µM	≥ 1 µM	–
CC(C)NC[C@@H](O)c1cnc2c(ccn2-c2cccc(-c3nnc[nH]3)c2)n1 [Compound 22B]	0.1 to 1 µM	≥ 1 µM	–
CCOC[C@H](O)c1cnc2c(cnn2-c2cccc(-c3nnc[nH]3)c2)c1 [Compound 23A]	< 0.1 µM	0.1 to 1 µM	–
CCOC[C@@H](O)c1cnc2c(cnn2-c2cccc(-c3nnc[nH]3)c2)c1 [Compound 23B]	< 0.1 µM	< 0.1 µM	–
O[C@@H](COC1CCC1)c1cnc2c(cnn2-c2cccc(-c3nnc[nH]3)c2)c1 [Compound 24A]	< 0.1 µM	0.1 to 1 µM	–
O[C@H](COC1CCC1)c1cnc2c(cnn2-c2cccc(-c3nnc[nH]3)c2)c1 [Compound 24B]	< 0.1 µM	< 0.1 µM	–
CN(C)C[C@H](O)c1cnc2c(cnn2-c2cccc(-c3nnc[nH]3)c2)c1 [Compound 25A]	0.1 to 1 µM	≥ 1 µM	–
CN(C)C[C@@H](O)c1cnc2c(cnn2-c2cccc(-c3nnc[nH]3)c2)c1 [Compound 25B]	0.1 to 1 µM	≥ 1 µM	–
CC(C)(C)OC[C@H](O)c1cnc2c(ccn2-c2cccc(-c3nnc[nH]3)c2)n1 [Compound 26A]	< 0.1 µM	0.1 to 1 µM	–
CC(C)(C)OC[C@@H](O)c1cnc2c(ccn2-c2cccc(-c3nnc[nH]3)c2)n1 [Compound 26B]	< 0.1 µM	< 0.1 µM	–
CC(C)NC[C@H](O)c1cnc2c(cnn2-c2cccc(-c3nnc[nH]3)c2)c1 [Compound 27A, (R)-1-(1-(3-(4H-1,2,4-triazol-3-yl)phenyl)-1H-pyrazolo[3,4-b]pyridin-5-yl)-2-(isopropylamino) ethan-1-ol]	≥ 1 µM	≥ 1 µM	–
CC(C)NC[C@@H](O)c1cnc2c(cnn2-c2cccc(-c3nnc[nH]3)c2)c1 [Compound 27B, (S)-1-(1-(3-(4H-1,2,4-triazol-3-yl)phenyl)-1H-pyrazolo[3,4-b]pyridin-5-yl)-2-(isopropylamino) ethan-1-ol]	< 0.1 µM	0.1 to 1 µM	–
O[C@@H](c1cnc2c(cnn2-c2cccc(-c3nnc[nH]3)c2)c1)C1COC1 [Compound 28A]	< 0.1 µM	< 0.1 µM	–
O[C@H](c1cnc2c(cnn2-c2cccc(-c3nnc[nH]3)c2)c1)C1COC1 [Compound 28B]	< 0.1 µM	0.1 to 1 µM	–
CC(C)OC[C@H](O)c1cnc2c(ccn2-c2cccc(-c3nnc[nH]3)c2)c1 [Compound 29A]	< 0.1 µM	< 0.1 µM	–
CC(C)OC[C@@H](O)c1cnc2c(ccn2-c2cccc(-c3nnc[nH]3)c2)c1 [Compound 29B]	< 0.1 µM	< 0.1 µM	–

Next, values leading:

IC50 [1]	EC50 ([2]; Homo sapiens, A549, A549)	EC50 ([2]; A549)	Compound
< 0.1 µM	< 0.1 µM	–	CC(C)OCC(O)c1cnc2c(cnn2-c2ccc(CCC(=O)O)c(F)c2)c1 (stereo in doubt) [Compound 70A, (R)-3-(2-fluoro-4-(5-(1-hydroxy-2-isopropoxyethyl)-1H-pyrazolo[3,4-b]pyridin-1-yl)phenyl) propanoic acid]
< 0.1 µM	0.1 to 1 µM	–	CC(C)OCC(O)c1cnc2c(cnn2-c2ccc(CCC(=O)O)c(F)c2)c1 (stereo in doubt) [Compound 70B, (S)-3-(2-fluoro-4-(5-(1-hydroxy-2-isopropoxyethyl)-1H-pyrazolo[3,4-b]pyridin-1-yl)phenyl) propanoic acid]
< 0.1 µM	0.1 to 1 µM	–	O[C@H](COC1CCC1)c1cnc2c(ccn2-c2cccc(-c3nnc[nH]3)c2)n1 [Compound 30A]
< 0.1 µM	< 0.1 µM	–	O[C@@H](COC1CCC1)c1cnc2c(ccn2-c2cccc(-c3nnc[nH]3)c2)n1 [Compound 30B]
< 0.1 µM	< 0.1 µM	–	CC(C)(C)OC[C@@H](O)c1cnc2c(ccn2-c2cccc(-c3nnc[nH]3)c2)c1 [Compound 31B]
< 0.1 µM	≥ 1 µM	–	CC(C)(C)OC[C@H](O)c1cnc2c(cnn2-c2cccc(-c3nnc[nH]3)c2)c1 [Compound 32A]
< 0.1 µM	< 0.1 µM	–	CC(C)(C)OC[C@@H](O)c1cnc2c(cnn2-c2cccc(-c3nnc[nH]3)c2)c1 [Compound 32B]
0.1 to 1 µM	≥ 1 µM	–	CC(C)(O)[C@H](O)c1cnc2c(cnn2-c2cccc(-c3nnc[nH]3)c2)c1 [Compound 33A, (R)-1-(1-(3-(4H-1,2,4-triazol-3-yl)phenyl)-1H-pyrazolo[3,4-b]pyridin-5-yl)-2-methylpropane-1,2-diol]
0.1 to 1 µM	≥ 1 µM	–	CC(C)(O)[C@@H](O)c1cnc2c(cnn2-c2cccc(-c3nnc[nH]3)c2)c1 [Compound 33B, (S)-1-(1-(3-(4H-1,2,4-triazol-3-yl)phenyl)-1H-pyrazolo[3,4-b]pyridin-5-yl)-2-methylpropane-1,2-diol]
< 0.1 µM	< 0.1 µM	–	CCCC(F)(F)[C@@H](O)c1cnc2c(ccn2-c2cccc(-c3nnc[nH]3)c2)n1 [Compound 35A]
0.1 to 1 µM	≥ 1 µM	–	CCCC(F)(F)[C@H](O)c1cnc2c(ccn2-c2cccc(-c3nnc[nH]3)c2)n1 [Compound 35B]
< 0.1 µM	< 0.1 µM	–	COCC[C@@H](O)c1cnc2c(cnn2-c2cccc(-c3nnc[nH]3)c2)c1 [Compound 36A]
< 0.1 µM	0.1 to 1 µM	–	COCC[C@H](O)c1cnc2c(cnn2-c2cccc(-c3nnc[nH]3)c2)c1 [Compound 36B]
< 0.1 µM	0.1 to 1 µM	–	O[C@@H](COC1CC1)c1cnc2c(cnn2-c2cccc(-c3nnc[nH]3)c2)c1 [Compound 37A]
< 0.1 µM	< 0.1 µM	–	O[C@H](COC1CC1)c1cnc2c(cnn2-c2cccc(-c3nnc[nH]3)c2)c1 [Compound 37B]
